Results on one molecule are retold here after US20050163855A1, “Method of preparing low-crystallinity oltipraz or amorphous oltipraz” (CJ CORPORATION, priority 2004, published 2005).

The conditions of data set [1]: cited from earlier work.

For orientation: solubility means the concentration that dissolves in the medium under given conditions.

Values after ≈ are worked out from the molar mass of the structure shown. Some results are limits rather than exact numbers.

With `Cc1c(-c2cnccn2)ssc1=S` [oltipraz], the solubility in the data set “physchem” (Cremophor EL, organic solvent or mixture) is 9.44 mg/mL (≈ 41.7 mM); in the data set “physchem” (Cremophor RH40, organic solvent or mixture), 10.7 mg/mL (≈ 47.2 mM); in “physchem” (Dimethylisosorbide, organic solvent or mixture) it was 17.2 mg/mL (≈ 76.2 mM); in the data set “physchem” (Labrasol, organic solvent or mixture), 12.6 mg/mL (≈ 55.6 mM); in the data set “physchem” (N,N-dimethylformamide, organic solvent or mixture), 31.3 mg/mL (≈ 138 mM); in “physchem” (N-methypyrrolidone, organic solvent or mixture), 13.7 mg/mL (≈ 60.3 mM). Besides, the solubility was found to be 7.99 mg/mL (≈ 35.3 mM) in the data set “physchem” (Polymethylene glycol 200, organic solvent or mixture); 10.5 mg/mL (≈ 46.5 mM) in “physchem” (Polymethylene glycol 400, organic solvent or mixture); 0.57 mg/mL (≈ 2.52 mM) in the data set “physchem” (Polypropylene glycol, organic solvent or mixture); 13.6 mg/mL (≈ 59.9 mM) in the data set “physchem” (Tetraglycol, organic solvent or mixture); 10.3 mg/mL (≈ 45.7 mM) in the data set “physchem” (Transcutol, organic solvent or mixture); 4.05 mg/mL (≈ 17.9 mM) in the data set “physchem” (acetone, organic solvent or mixture). The solubility was found to be 2.73 mg/mL (≈ 12.1 mM) in “physchem” (acetonitrile, organic solvent or mixture); 28.6 mg/mL (≈ 126 mM) in the data set “physchem” (chloroform, organic solvent or mixture); 29.1 mg/mL (≈ 129 mM) in “physchem” (dimethyl sulfoxide, organic solvent or mixture); 0.67 mg/mL (≈ 2.96 mM) in “physchem” (ethanol, organic solvent or mixture); 0.5 mg/mL (≈ 2.21 mM) in “physchem” (methanol, organic solvent or mixture); 7.6 mg/mL (≈ 33.6 mM) in “physchem” (methylene chloride, organic solvent or mixture). The water solubility in data set [1] is no more than 0.001 mg/mL.
